The target of one assay is T1, CD36 (Rattus norvegicus, UniProt Q07969).
T1 construct: the rat cardiac membranes (200 μg) as source of CD36; from tissue; host or cells: Sprague Dawley rat heart (cardiac membranes)
Nature of the assay: Competitive covalent CD36 binding assay using photoactivatable [125I]-Tyr-Bpa-Ala-Hexarelin. The following applies: for IC50: displacement of [125I]-Tyr-Bpa-Ala-Hexarelin; for drop of CD36 affinity, factor: factor of decrease, reference peptide not stated. The method, then:
Animal use was in accordance with the Institutional Animal Ethics Committee and the Canadian Council on Animal Care guidelines for the use of experimental animals. Sprague Dawley (275-350 g) rats were anaesthetized with sodium pentobarbital and their hearts were promptly removed in ice-cold saline and the cardiac membranes were prepared according to Harigaya and Schwartz.^lxvi
Nonspecific binding was defined as binding not displaced by 50 μM peptide. After an incubation period of 60 min at 22° C., membranes were submitted to UV irradiation at 365 nm for 15 min at 4° C. After centrifugation at 12 000 g for 15 min, the pellets were resuspended in 100 μl of sample buffer consisting of 62 mM Tris-HCl, pH 6.8, 2% SDS, 10% glycerol, 15% 2-mercapto-ethanol, and 0.05% bromophenol blue, and boiled for 5 min prior to being subjected to electrophoresis on 7.5% SDS-PAGE. The SDS/PAGE gels were fixed, colored in Coomassie Brilliant Blue R-250, dried, exposed to a storage phosphor intensifying screen (Amersham Biosciences), and analysed by using a Typhoon PhosphorImager (Amersham Biosciences) and ImageQuant 5.0 software to establish competition curves.

In a further assay the target is T2, GHS-R1a receptor (Homo sapiens, UniProt Q92847).
T2 construct: expressed in transfected cells; host or cells: LLC-PK1 cells, transient calcium phosphate transfection, membrane preparation
The experiment in a line: GHS-R1a receptor competitive binding assay with 125I-Ghrelin. The following applies: for IC50: competition with 125I-Ghrelin, GHS-R1a transiently transfected in LLC-PK1 cells; for loss of GHS-R1a binding affinity, factor relative to GHRP-6: factor of decrease compared to GHRP-6. The procedure:
Transfection LLC-PK1 cells were seeded at 1.5×10^6 cells/10 cm Petri-dishes and grown for 24 h in DMEM high-glucose (4.5 g/L) with 10% foetal bovine serum supplemented with penicillin (10,000 Units/ml) and streptomycin (10,000 ug/ml), and cultured at 37° C., with 5% CO2. The medium was then replaced for another 4-5 hours before CaPO4 calcium phosphate transfection. The DNA solution consists of 40 μg of DNA in a volume of 500 μl in which was added 500 μl of 2 mM Tris-HCl pH 8.0, 0.2 mM EDTA pH 8.0 containing 500 mM CaCl2, to a final volume of 1 ml. Then 1 ml of 50 mM Hepes, 280 mM NaCl, 1.5 mM Na2HPO4 pH to 7.1 (HBSS) was added by alterning 1 drop/2 air bubbles. The transfection mix reaction was incubated at RT for 30 min. After the incubation period, 1 ml of the mix was added to each plate and distributed evenly for incubation. The media was replaced with standard DMEM-high glucose media for another 24 h and cells were collected for membrane preparation.
Membrane preparation The experiment was carried out 4° C. unless specified. Cells were washed 2 times with PBS and with the homogenization buffer (HB) consisting of 50 mM Tris, 5 mM MgCl2, 2.5 mM EDTA, 30 ug/ml bacitracin at pH 7.3 and were scraped in Eppendorf tubes. Cells were lysed with 2 cycles of freeze/thawing using liquid nitrogen and were then centrifuged at 4° C. for 20 min at 10,000 g to collect the membranes. The membranes were re-suspended in a small volume of HB and aliquoted for storage at −80° C.
The non-specific binding was determined by excess of competitive ligand at 10^−5M. The reaction was carried out at RT for 1 h.

The results in this text go back to US20120101257A1, “PROCESSES FOR PREPARING AMINO-SUBSTITUTED GAMMA-LACTAMS” (UNIVERSITE DE MONTREAL, priority 2009, published 2012).

*1 amine or outer side, *2 acyl side, *3 side chain or, on linkers, in order; H or OH if unused. Where a SMILES comes first, the peptide text is derived from it. [ ]: non-standard residue; d: D form. The star is where a group is joined. X9 = O=C1C[C@H](N[*:1])CN1[C@@H](Cc1c[nH]c2ccccc12)C(=O)[*:2]; X10 = O=C1C[C@H](N[*:1])CN1[C@H](Cc1ccccc1)C(=O)[*:2]; X5 = O=C1C[C@@H](N[*:1])CN1[C@H](Cc1ccccc1)C(=O)[*:2]; X7 = N[C@H]1CC(=O)N([C@H](Cc2c[nH]c3ccccc23)C(=O)*)C1; X3 = N[C@@H]1CCN([C@H](Cc2c[nH]c3ccccc23)C(=O)*)C1=O; X4 = N[C@H]1CCN([C@H](Cc2c[nH]c3ccccc23)C(=O)*)C1=O; X1 = NCCCC[C@@H](C(N)=O)N1C[C@@H](N*)CC1=O; X6 = NCCCC[C@@H](C(N)=O)N1CC[C@@H](N*)C1=O; X2 = NCCCC[C@@H](C(N)=O)N1CC[C@H](N*)C1=O; X8 = NCCCC[C@@H](C(N)=O)N1C[C@H](N*)CC1=O Some results are limits rather than exact numbers.

T1 sequence (Q07969 whole entry): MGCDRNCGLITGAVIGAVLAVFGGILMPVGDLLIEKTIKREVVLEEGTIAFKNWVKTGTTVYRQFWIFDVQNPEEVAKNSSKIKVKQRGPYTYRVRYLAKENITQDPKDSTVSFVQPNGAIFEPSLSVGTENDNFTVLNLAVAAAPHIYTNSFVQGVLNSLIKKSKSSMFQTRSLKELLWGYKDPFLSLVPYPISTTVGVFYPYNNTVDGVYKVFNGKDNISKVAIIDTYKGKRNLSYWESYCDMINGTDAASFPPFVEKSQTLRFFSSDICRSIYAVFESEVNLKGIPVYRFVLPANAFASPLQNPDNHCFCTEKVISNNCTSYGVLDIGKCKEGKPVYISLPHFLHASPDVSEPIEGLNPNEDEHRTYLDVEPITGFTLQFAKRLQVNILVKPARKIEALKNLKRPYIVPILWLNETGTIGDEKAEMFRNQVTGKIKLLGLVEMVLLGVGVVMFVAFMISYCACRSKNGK
T2 sequence (Q92847 whole entry): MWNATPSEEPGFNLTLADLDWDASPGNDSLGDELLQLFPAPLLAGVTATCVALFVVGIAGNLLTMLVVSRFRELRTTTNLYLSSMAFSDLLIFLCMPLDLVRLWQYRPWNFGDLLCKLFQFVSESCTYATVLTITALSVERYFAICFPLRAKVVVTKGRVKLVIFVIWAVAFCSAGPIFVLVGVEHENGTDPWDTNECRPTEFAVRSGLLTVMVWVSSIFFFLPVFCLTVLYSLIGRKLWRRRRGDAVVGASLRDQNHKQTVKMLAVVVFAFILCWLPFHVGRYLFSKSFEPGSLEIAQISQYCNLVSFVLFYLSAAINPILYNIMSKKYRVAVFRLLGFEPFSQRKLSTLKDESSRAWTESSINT

For `C[C@H](NC(=O)[C@@H](Cc1c[nH]c2ccccc12)N1CC[C@H](N)C1=O)C(=O)N[C@@H](Cc1c[nH]c2ccccc12)C(=O)N[C@H](Cc1ccccc1)C(=O)N[C@@H](CCCCN)C(N)=O` [Compound 44, (S)-Agl-D-Trp-Ala-Trp-D-Phe-Lys-NH2] (X4-AW[dF]K-NH2), the IC50 on CD36 (rat cardiac membranes) turned out to be 14.5 µM; on GHS-R1a receptor it was 0.0409 µM. In addition, at GHS-R1a receptor, the “loss of GHS-R1a binding affinity, factor relative to GHRP-6” value was determined as 10.

With `C[C@@H](C(=O)N[C@@H](Cc1c[nH]c2ccccc12)C(=O)N[C@H](Cc1ccccc1)C(=O)N[C@@H](CCCCN)C(N)=O)N1CC[C@H](NC(=O)[C@@H](N)Cc2c[nH]cn2)C1=O` [Compound 45, His-(S)-Agl-Ala-Trp-D-Phe-Lys-NH2], the values for the IC50 on CD36 (rat cardiac membranes) and on GHS-R1a receptor were 13.4 µM and 28.6 µM, respectively. The “drop of CD36 affinity, factor” value on CD36 is recorded as 15.

As to `NCCCC[C@H](NC(=O)[C@H](Cc1ccccc1)NC(=O)[C@H](Cc1c[nH]c2ccccc12)N1CC[C@H](NC(=O)[C@@H](Cc2c[nH]c3ccccc23)NC(=O)[C@@H](N)Cc2c[nH]cn2)C1=O)C(N)=O` [Compound 46, His-D-Trp-(S)-Agl-Trp-D-Phe-Lys-NH2], on CD36 (rat cardiac membranes), the IC50 was found to be 7.45 µM and the “affinity for the CD36 receptor (in words)” value is recorded as “retained similar affinity”. Moreover, at GHS-R1a receptor, the IC50 turned out to be 2.39 µM and the “loss of GHS-R1a binding affinity, factor relative to GHRP-6” value is given as 10^3.

`C[C@H](NC(=O)[C@@H](Cc1c[nH]c2ccccc12)NC(=O)[C@@H](N)Cc1c[nH]cn1)C(=O)N[C@H]1CCN([C@H](Cc2ccccc2)C(=O)N[C@@H](CCCCN)C(N)=O)C1=O` [Compound 47, His-D-Trp-Ala-(S)-Agl-D-Phe-Lys-NH2]: the IC50 on CD36 (rat cardiac membranes) and at GHS-R1a receptor was > 10 µM throughout.

With `C[C@H](NC(=O)[C@@H](Cc1c[nH]c2ccccc12)NC(=O)[C@@H](N)Cc1c[nH]cn1)C(=O)N[C@@H](Cc1c[nH]c2ccccc12)C(=O)N[C@H]1CCN([C@@H](CCCCN)C(N)=O)C1=O` [Compound 48, His-D-Trp-Ala-Trp-(S)-Agl-Lys-NH2] (H-H[dW]AW-X2), the results for the IC50 on CD36 (rat cardiac membranes) and at GHS-R1a receptor were 21.4 µM and 3.1 µM, respectively. For the same compound, at CD36, the “drop of CD36 affinity, factor” value came out at 15.

Turning to `C[C@H](NC(=O)[C@@H](Cc1c[nH]c2ccccc12)N1C[C@@H](N)CC1=O)C(=O)N[C@@H](Cc1c[nH]c2ccccc12)C(=O)N[C@H](Cc1ccccc1)C(=O)N[C@@H](CCCCN)C(N)=O` [Compound 49, (S)-Bgl-D-Trp-Ala-Trp-D-Phe-Lys-NH2] (X7-AW[dF]K-NH2), the IC50 was > 10 µM on CD36 (rat cardiac membranes) and 0.371 µM on GHS-R1a receptor.

`C[C@@H](C(=O)NCN[C@@H](Cc1c[nH]c2ccccc12)C(=O)N[C@H](Cc1ccccc1)C(=O)N[C@@H](CCCCN)C(N)=O)N1C[C@@H](NC(=O)[C@@H](N)Cc2c[nH]cn2)CC1=O` [Compound 50, His-(S)-Bgl-Ala-Trp-D-Phe-Lys-NH2]: the IC50 on CD36 (rat cardiac membranes) and on GHS-R1a receptor was > 10 µM each time.

As to `NCCCC[C@H](NC(=O)[C@@H](Cc1ccccc1)NC(=O)[C@H](Cc1c[nH]c2ccccc12)N1C[C@@H](NC(=O)[C@@H](Cc2c[nH]c3ccccc23)NC(=O)[C@@H](N)Cc2cnc[nH]2)CC1=O)C(N)=O` [Compound 51, His-D-Trp-(S)-Bgl-Trp-D-Phe-Lys-NH2] (H-H[dW][X9][dF]K-NH2), the IC50 at CD36 (rat cardiac membranes) is > 10 µM; at GHS-R1a receptor, 0.654 µM.

In the case of `C[C@H](NC(=O)[C@@H](Cc1c[nH]c2ccccc12)NC(=O)[C@@H](N)Cc1c[nH]cn1)C(=O)N[C@H]1CC(=O)N([C@H](Cc2ccccc2)C(=O)N[C@@H](CCCCN)C(N)=O)C1` [Compound 52, His-D-Trp-Ala-(S)-Bgl-D-Phe-Lys-NH2] (H-H[dW]A[X10]K-NH2), the IC50 at CD36 (rat cardiac membranes) and on GHS-R1a receptor was > 10 µM in each case.

Regarding `C[C@H](NC(=O)[C@@H](Cc1c[nH]c2ccccc12)NC(=O)[C@@H](N)Cc1c[nH]cn1)C(=O)N[C@@H](Cc1c[nH]c2ccccc12)C(=O)N[C@H]1CC(=O)N([C@@H](CCCCN)C(N)=O)C1` [Compound 53, His-D-Trp-Ala-Trp-(S)-Bgl-Lys-NH2] (H-H[dW]AW-X1), the IC50 amounted to 26.5 µM at CD36 (rat cardiac membranes) and 24.5 µM at GHS-R1a receptor. Further, the “drop of CD36 affinity, factor” value at CD36 was determined as 15.

Regarding `C[C@H](NC(=O)[C@@H](Cc1c[nH]c2ccccc12)N1CC[C@@H](N)C1=O)C(=O)N[C@@H](Cc1c[nH]c2ccccc12)C(=O)N[C@H](Cc1ccccc1)C(=O)N[C@@H](CCCCN)C(N)=O` [Compound 60, (R)-Agl-D-Trp-Ala-Trp-D-Phe-Lys-NH2] (X3-AW[dF]K-NH2), the IC50 at CD36 (rat cardiac membranes) was 8.72 µM; on GHS-R1a receptor, 3.46 µM.

Regarding `C[C@@H](C(=O)N[C@@H](Cc1c[nH]c2ccccc12)C(=O)N[C@H](Cc1ccccc1)C(=O)N[C@@H](CCCCN)C(N)=O)N1CC[C@@H](NC(=O)[C@@H](N)Cc2c[nH]cn2)C1=O` [Compound 61, His-(R)-Agl-Ala-Trp-D-Phe-Lys-NH2], the IC50 at CD36 (rat cardiac membranes) and on GHS-R1a receptor was > 10 µM throughout.

`NCCCC[C@H](NC(=O)[C@H](Cc1ccccc1)NC(=O)[C@H](Cc1c[nH]c2ccccc12)N1CC[C@@H](NC(=O)[C@@H](Cc2c[nH]c3ccccc23)NC(=O)[C@@H](N)Cc2c[nH]cn2)C1=O)C(N)=O` [Compound 62, His-D-Trp-(R)-Agl-Trp-D-Phe-Lys-NH2]: the figures for the IC50 at CD36 (rat cardiac membranes) and at GHS-R1a receptor were 17.3 µM and 2.82 µM, respectively.

In the case of `C[C@H](NC(=O)[C@@H](Cc1c[nH]c2ccccc12)NC(=O)[C@@H](N)Cc1c[nH]cn1)C(=O)N[C@@H]1CCN([C@H](Cc2ccccc2)C(=O)N[C@@H](CCCCN)C(N)=O)C1=O` [Compound 63, His-D-Trp-Ala-(R)-Agl-D-Phe-Lys-NH2], the IC50 on CD36 (rat cardiac membranes) and on GHS-R1a receptor was > 10 µM throughout.

In the case of `C[C@H](NC(=O)[C@@H](Cc1c[nH]c2ccccc12)NC(=O)[C@@H](N)Cc1c[nH]cn1)C(=O)N[C@@H](Cc1c[nH]c2ccccc12)C(=O)N[C@@H]1CCN([C@@H](CCCCN)C(N)=O)C1=O` [Compound 64, His-D-Trp-Ala-Trp-(R)-Agl-Lys-NH2] (H-H[dW]AW-X6), the “reduction of CD36 binding affinity, factor compared with hexarelin” value at CD36 stood at 10. Also, the IC50 on CD36 (rat cardiac membranes) was 38.2 µM; at GHS-R1a receptor, > 10 µM.

Turning to `C[C@H](NC(=O)[C@@H](Cc1c[nH]c2ccccc12)NC(=O)[C@@H](N)Cc1c[nH]cn1)C(=O)N[C@@H]1CC(=O)N([C@H](Cc2ccccc2)C(=O)N[C@@H](CCCCN)C(N)=O)C1` [Compound 69, His-D-Trp-Ala-(R)-Bgl-D-Phe-Lys-NH2] (H-H[dW]A[X5]K-NH2), at CD36, the “reduction of CD36 binding affinity, factor compared with hexarelin” value is listed as 10. Also, the IC50 at CD36 (rat cardiac membranes) was 53.5 µM; at GHS-R1a receptor, > 10 µM.

With `C[C@H](NC(=O)[C@@H](Cc1c[nH]c2ccccc12)NC(=O)[C@@H](N)Cc1c[nH]cn1)C(=O)N[C@@H](Cc1c[nH]c2ccccc12)C(=O)N[C@@H]1CC(=O)N([C@@H](CCCCN)C(N)=O)C1` [Compound 70, His-D-Trp-Ala-Trp-(R)-Bgl-Lys-NH2] (H-H[dW]AW-X8), the IC50 at CD36 (rat cardiac membranes) and at GHS-R1a receptor was > 10 µM in each case.
